According to the NIST ThermoML archive (doi:10.1016/j.jct.2011.05.033):
Where “and” joins values, the source holds several entries; their conditions need not be identical. Equal entries are not always repeated.

Assays:
[1] = excess molar enthalpy (molar enthalpy of mixing); xn = mol fraction of the nth substance listed; conditions: 298.15 K, 101 kPa, Liquid, Isothermal Titration Calorimeter
[2] = xn = mol fraction of the nth substance listed; conditions: 298.15 K, 101 kPa, Liquid, Vibrating tube method

CCCCCC[n+]1ccn(C)c1.O=S(=O)([N-]S(=O)(=O)C(F)(F)F)C(F)(F)F + CCCCCCO
[1]
Conditions	excess molar enthalpy [kcal/mol]
x2 = 0.0045	0.00956
x2 = 0.0089	0.0189
x2 = 0.0132	0.0282
x2 = 0.0176	0.037
x2 = 0.0219	0.0459
x2 = 0.0261	0.0545
x2 = 0.0304	0.0629
x2 = 0.0345	0.071
x2 = 0.0387	0.0791
x2 = 0.0428	0.0868
x2 = 0.0469	0.0946
x2 = 0.0509	0.102
x2 = 0.0549	0.109
x2 = 0.0589	0.117
x2 = 0.0629	0.124

CCn1cc[n+](C)c1.O=S(=O)([N-]S(=O)(=O)C(F)(F)F)C(F)(F)F + CCCCCCO
[1]
Conditions	excess molar enthalpy [kcal/mol]
x2 = 0.0036	0.00621
x2 = 0.0072	0.0117
x2 = 0.0107	0.0165
x2 = 0.0142	0.0206
x2 = 0.0177	0.0239
x2 = 0.0212	0.0265
x2 = 0.0246	0.0287

CCCCCC[n+]1ccn(C)c1.O=S(=O)([N-]S(=O)(=O)C(F)(F)F)C(F)(F)F + CCCCO
[1]
Conditions	excess molar enthalpy [kcal/mol]
x2 = 0.0064	0.0141
x2 = 0.0127	0.0277
x2 = 0.019	0.0411
x2 = 0.0252	0.0543
x2 = 0.0313	0.0672
x2 = 0.0373	0.0796
x2 = 0.0432	0.092
x2 = 0.0491	0.104
x2 = 0.0549	0.116
x2 = 0.0606	0.127
x2 = 0.0663	0.138
x2 = 0.0719	0.149
x2 = 0.0774	0.16
x2 = 0.0829	0.171
x2 = 0.0883	0.181

CCn1cc[n+](C)c1.O=S(=O)([N-]S(=O)(=O)C(F)(F)F)C(F)(F)F + CCCCO
[1]
Conditions	excess molar enthalpy [kcal/mol]
x2 = 0.0051	0.0103
x2 = 0.0102	0.0203
x2 = 0.0152	0.0304
x2 = 0.0201	0.0399
x2 = 0.025	0.0495
x2 = 0.0299	0.0586
x2 = 0.0347	0.0676
x2 = 0.0395	0.0765
x2 = 0.0442	0.0851
x2 = 0.0488	0.0935
x2 = 0.0535	0.102
x2 = 0.0581	0.11
x2 = 0.0626	0.118
x2 = 0.0671	0.125
x2 = 0.0715	0.133

CCCCCC[n+]1ccn(C)c1.O=S(=O)([N-]S(=O)(=O)C(F)(F)F)C(F)(F)F + CCO
[1]
Conditions	excess molar enthalpy [kcal/mol]
x2 = 0.0095	0.0195
x2 = 0.0189	0.0383
x2 = 0.0281	0.0564
x2 = 0.0371	0.0739
x2 = 0.046	0.0907
x2 = 0.0547	0.107
x2 = 0.0632	0.123
x2 = 0.0716	0.138
x2 = 0.0798	0.152
x2 = 0.0879	0.166
x2 = 0.0959	0.18
x2 = 0.1037	0.193
x2 = 0.1114	0.206
x2 = 0.1189	0.218
x2 = 0.1263	0.23

CCn1cc[n+](C)c1.O=S(=O)([N-]S(=O)(=O)C(F)(F)F)C(F)(F)F + CCO
[1]
Conditions	excess molar enthalpy [kcal/mol]
x2 = 0.0083	0.0143
x2 = 0.0165	0.0282
x2 = 0.0245	0.0416
x2 = 0.0324	0.0545
x2 = 0.0402	0.0669
x2 = 0.0479	0.0791
x2 = 0.0554	0.0908
x2 = 0.0628	0.102
x2 = 0.0702	0.113
x2 = 0.0773	0.124
x2 = 0.0844	0.134
x2 = 0.0914	0.144
x2 = 0.0983	0.154
x2 = 0.105	0.163
x2 = 0.1117	0.172

CCCCCCCCCCn1cc[n+](C)c1.O=S(=O)([N-]S(=O)(=O)C(F)(F)F)C(F)(F)F + CO
Conditions	excess molar enthalpy [kcal/mol]	mass density [kg/m3]
[1], x2 = 0.0171	0.0146	–
[1], x2 = 0.0336	0.028	–
[1], x2 = 0.0496	0.0402	–
[1], x2 = 0.0651	0.0511	–
[1], x2 = 0.08	0.0614	–
[1], x2 = 0.0945	0.0705	–
[1], x2 = 0.1086	0.0789	–
[1], x2 = 0.1222	0.0863	–
[1], x2 = 0.1354	0.0932	–
[1], x2 = 0.1482	0.0994	–
[1], x2 = 0.1606	0.105	–
[1], x2 = 0.1727	0.11	–
[1], x2 = 0.1844	0.115	–
[1], x2 = 0.1958	0.119	–
[1], x2 = 0.2069	0.123	–
[2], x1 = 0.0001	–	789.6
[2], x1 = 0.0233	–	883.6
[2], x1 = 0.0513	–	963.28
[2], x1 = 0.1054	–	1054.89
[2], x1 = 0.1417	–	1094.51
[2], x1 = 0.1679	–	1115.13
[2], x1 = 0.2161	–	1147.23
[2], x1 = 0.2452	–	1163.25
[2], x1 = 0.297	–	1183.51
[2], x1 = 0.4686	–	1228.19
[2], x1 = 0.5186	–	1236.02
[2], x1 = 0.762	–	1263.65
[2], x1 = 0.7868	–	1264.97
[2], x1 = 0.8756	–	1271.49
[2], x1 = 0.9503	–	1275.73
[2], x1 = 1	–	1278.57

CCCCCCCCn1cc[n+](C)c1.O=S(=O)([N-]S(=O)(=O)C(F)(F)F)C(F)(F)F + CO
Conditions	excess molar enthalpy [kcal/mol]	mass density
[1], x2 = 0.0153	0.0206	–
[1], x2 = 0.0302	0.0402	–
[1], x2 = 0.0446	0.0586	–
[1], x2 = 0.0586	0.076	–
[1], x2 = 0.0721	0.0923	–
[1], x2 = 0.0853	0.108	–
[1], x2 = 0.0982	0.122	–
[1], x2 = 0.1106	0.136	–
[1], x2 = 0.1228	0.149	–
[1], x2 = 0.1346	0.162	–
[1], x2 = 0.1461	0.173	–
[1], x2 = 0.1573	0.184	–
[1], x2 = 0.1682	0.195	–
[1], x2 = 0.1788	0.205	–
[1], x2 = 0.1892	0.214	–
[2], x1 = 0.0001	–	791.05 kg/m3
[2], x1 = 0.0218	–	882.47 kg/m3
[2], x1 = 0.0599	–	986.86 kg/m3
[2], x1 = 0.0837	–	1031.65 kg/m3
[2], x1 = 0.1926	–	1153.62 kg/m3
[2], x1 = 0.2708	–	1198.9 kg/m3
[2], x1 = 0.3019	–	1213.08 kg/m3
[2], x1 = 0.5004	–	1267.25 kg/m3
[2], x1 = 0.8201	–	1308.01 kg/m3
[2], x1 = 0.8355	–	1308.78 kg/m3
[2], x1 = 0.989	–	1319.5 kg/m3
[2], x1 = 1	–	1320.55 kg/m3 and 1320.38 kg/m3

CCCCCC[n+]1ccn(C)c1.O=S(=O)([N-]S(=O)(=O)C(F)(F)F)C(F)(F)F + CO
Conditions	excess molar enthalpy [kcal/mol]	mass density
[1], x2 = 0.0147	0.0257	–
[1], x2 = 0.029	0.0503	–
[1], x2 = 0.0429	0.0738	–
[1], x2 = 0.0564	0.0962	–
[1], x2 = 0.0695	0.118	–
[1], x2 = 0.0823	0.138	–
[1], x2 = 0.0947	0.158	–
[1], x2 = 0.1068	0.176	–
[1], x2 = 0.1186	0.194	–
[1], x2 = 0.13	0.211	–
[1], x2 = 0.1412	0.228	–
[1], x2 = 0.1521	0.243	–
[1], x2 = 0.1627	0.258	–
[1], x2 = 0.1731	0.272	–
[1], x2 = 0.1832	0.286	–
[2], x1 = 0.0001	–	792.92 kg/m3
[2], x1 = 0.0002	–	792.66 kg/m3
[2], x1 = 0.0003	–	792.92 kg/m3
[2], x1 = 0.0711	–	1017.33 kg/m3
[2], x1 = 0.0868	–	1047.67 kg/m3
[2], x1 = 0.1772	–	1163.23 kg/m3
[2], x1 = 0.2176	–	1195.97 kg/m3
[2], x1 = 0.2695	–	1228.24 kg/m3
[2], x1 = 0.4991	–	1308.41 kg/m3
[2], x1 = 0.5488	–	1318.7 kg/m3
[2], x1 = 0.5851	–	1325.38 kg/m3
[2], x1 = 1	–	1371.91 kg/m3 and 1371.79 kg/m3

CCCC[n+]1ccn(C)c1.O=S(=O)([N-]S(=O)(=O)C(F)(F)F)C(F)(F)F + CO
Conditions	excess molar enthalpy [kcal/mol]	mass density [kg/m3]
[1], x2 = 0.0131	0.0218	–
[1], x2 = 0.0258	0.0423	–
[1], x2 = 0.0383	0.0617	–
[1], x2 = 0.0504	0.08	–
[1], x2 = 0.0622	0.0973	–
[1], x2 = 0.0737	0.114	–
[1], x2 = 0.0849	0.129	–
[1], x2 = 0.0959	0.144	–
[1], x2 = 0.1066	0.157	–
[1], x2 = 0.1171	0.171	–
[1], x2 = 0.1273	0.183	–
[1], x2 = 0.1373	0.195	–
[1], x2 = 0.147	0.206	–
[1], x2 = 0.1566	0.216	–
[1], x2 = 0.1659	0.226	–
[2], x1 = 0.0844	–	1054.48
[2], x1 = 0.1155	–	1109.91
[2], x1 = 0.1594	–	1168.72
[2], x1 = 0.1722	–	1182.69
[2], x1 = 0.264	–	1259.96
[2], x1 = 0.6327	–	1388.71
[2], x1 = 0.8245	–	1418.09
[2], x1 = 1	–	1436.29

CCn1cc[n+](C)c1.O=S(=O)([N-]S(=O)(=O)C(F)(F)F)C(F)(F)F + CO
Conditions	excess molar enthalpy [kcal/mol]	mass density
[1], x2 = 0.0118	0.0158	–
[1], x2 = 0.0233	0.0311	–
[1], x2 = 0.0346	0.0454	–
[1], x2 = 0.0456	0.0593	–
[1], x2 = 0.0563	0.0722	–
[1], x2 = 0.0668	0.0848	–
[1], x2 = 0.0771	0.0966	–
[1], x2 = 0.0872	0.108	–
[1], x2 = 0.097	0.119	–
[1], x2 = 0.1067	0.129	–
[1], x2 = 0.1161	0.139	–
[1], x2 = 0.1253	0.148	–
[1], x2 = 0.1343	0.157	–
[1], x2 = 0.1432	0.165	–
[1], x2 = 0.1519	0.173	–
[2], x1 = 0.0001	–	792.63 kg/m3
[2], x1 = 0.0732	–	1040.6 kg/m3
[2], x1 = 0.1082	–	1115.5 kg/m3
[2], x1 = 0.1385	–	1165.23 kg/m3
[2], x1 = 0.2145	–	1258.12 kg/m3
[2], x1 = 0.2485	–	1289.7 kg/m3
[2], x1 = 0.2968	–	1325.28 kg/m3
[2], x1 = 0.3388	–	1351.25 kg/m3
[2], x1 = 0.6002	–	1451 kg/m3
[2], x1 = 0.6355	–	1459.63 kg/m3
[2], x1 = 0.7925	–	1487.15 kg/m3
[2], x1 = 0.837	–	1497.28 kg/m3
[2], x1 = 1	–	1518.63 kg/m3 and 1518.58 kg/m3

CO [methanol] + CCCCCCCCCCn1cc[n+](C)c1.O=S(=O)([N-]S(=O)(=O)C(F)(F)F)C(F)(F)F
Conditions	mass density [kg/m3]
[2], x2 = 0	793.17

CO [methanol] + CCCCCCCCn1cc[n+](C)c1.O=S(=O)([N-]S(=O)(=O)C(F)(F)F)C(F)(F)F
Conditions	mass density [kg/m3]
[2], x2 = 0	792.64

CO [methanol] + CCCCCC[n+]1ccn(C)c1.O=S(=O)([N-]S(=O)(=O)C(F)(F)F)C(F)(F)F
Conditions	mass density [kg/m3]
[2], x2 = 0	792.66

CO [methanol] + CCCC[n+]1ccn(C)c1.O=S(=O)([N-]S(=O)(=O)C(F)(F)F)C(F)(F)F
Conditions	mass density [kg/m3]
[2], x2 = 0	792.92

CO [methanol] + CCn1cc[n+](C)c1.O=S(=O)([N-]S(=O)(=O)C(F)(F)F)C(F)(F)F
Conditions	mass density [kg/m3]
[2], x2 = 0	794.62
